Values quoted from earlier work, collected in patent publication US20070135454A1, “Bicyclic pyrimidin-4(3h)-ones and analogues and derivatives thereof which modulate the function of the vanilloid-1-receptor(vr1)” (priority 2003, published 2007).

Target: VR1 (Rattus norvegicus, UniProt O35433)
Conditions: Wahl et al., Mol. Pharmacol, 59:9, 2001

VR1, sequence (O35433 whole entry): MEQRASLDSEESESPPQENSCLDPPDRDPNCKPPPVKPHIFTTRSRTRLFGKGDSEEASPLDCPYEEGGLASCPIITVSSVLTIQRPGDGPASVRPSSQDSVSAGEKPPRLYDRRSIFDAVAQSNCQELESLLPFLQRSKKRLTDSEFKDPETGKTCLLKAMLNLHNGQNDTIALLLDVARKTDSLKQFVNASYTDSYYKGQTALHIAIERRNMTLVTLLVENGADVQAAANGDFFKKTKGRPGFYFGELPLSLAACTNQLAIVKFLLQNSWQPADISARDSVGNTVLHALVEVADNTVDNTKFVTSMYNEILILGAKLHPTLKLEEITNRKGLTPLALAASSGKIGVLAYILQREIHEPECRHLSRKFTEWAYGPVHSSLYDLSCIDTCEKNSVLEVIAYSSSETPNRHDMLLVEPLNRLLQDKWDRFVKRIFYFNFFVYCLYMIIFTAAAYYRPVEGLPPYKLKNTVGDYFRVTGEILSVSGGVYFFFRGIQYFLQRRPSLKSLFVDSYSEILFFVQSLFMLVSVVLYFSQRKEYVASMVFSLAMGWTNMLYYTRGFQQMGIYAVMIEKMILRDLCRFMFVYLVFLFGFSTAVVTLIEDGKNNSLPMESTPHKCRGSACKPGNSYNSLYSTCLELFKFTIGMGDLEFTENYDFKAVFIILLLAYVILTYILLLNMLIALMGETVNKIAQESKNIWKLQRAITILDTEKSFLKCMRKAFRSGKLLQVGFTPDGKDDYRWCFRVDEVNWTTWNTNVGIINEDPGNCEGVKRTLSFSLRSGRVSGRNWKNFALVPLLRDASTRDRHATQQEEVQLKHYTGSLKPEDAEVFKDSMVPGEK

C=C(C)[C@]12C[C@@H](C)[C@@]34O[C@](Cc5ccccc5)(O[C@@H]1[C@@H]3C=C(COC(=O)Cc1cc(I)c(O)c(OC)c1)C[C@]1(O)C(=O)C(C)=C[C@@H]41)O2 [Iodo-resiniferatoxin]
antagonist of VR1 (potency in words): nanomolar antagonist of VR1
